Calls of active or inactive are those of the source. No cut-off for these calls is given here.
Assays:
Musca domestica [1] = assay: Insecticidal activity against Musca domestica (housefly) assessed as paralysis at 28 degC measured after 24 hr at 10 ug topically; format: functional, organism-based
Musca domestica [2] = assay: Insecticidal activity against Musca domestica (housefly) assessed as paralysis at 28 degC measured per fly after 24 hr; format: functional

SMILES | Activity (Musca domestica [1]) | LD50 (Musca domestica [2])
COCCOc1ccc(OC)c([C@H]2OC[C@]3(O)[C@H](Oc4c(OC)cccc4OC)OC[C@H]23)c1 (racemic) | inactive | –
CCCCOc1ccc(OC)c([C@H]2OC[C@]3(O)[C@@H](Oc4c(OC)cccc4OC)OC[C@H]23)c1 (racemic) | – | 8 µg
COc1ccc(OCc2ccc3c(c2)OCO3)cc1[C@H]1OC[C@]2(O)[C@@H](Oc3c(OC)cccc3OC)OC[C@H]12 (racemic) | inactive | –
COCCOCCOc1ccc(OC)c([C@H]2OC[C@]3(O)[C@@H](Oc4c(OC)cccc4OC)OC[C@H]23)c1 (racemic) | Active | –
COCCOc1ccc(OC)c([C@H]2OC[C@]3(O)[C@@H](Oc4c(OC)cccc4OC)OC[C@H]23)c1 (racemic) | Active | –
COc1ccc(O)cc1[C@H]1OC[C@]2(O[Si](C)(C)C(C)(C)C)[C@@H](Oc3c(OC)cccc3OC)OC[C@H]12 (racemic) | inactive | –
COc1ccc(O[Si](C)(C)C(C)(C)C)cc1[C@H]1OC[C@]2(O[Si](C)(C)C(C)(C)C)C(Oc3c(OC)cccc3OC)OC[C@H]12 (mixture of isomers) | inactive | –
COc1ccc(O)cc1[C@H]1OC[C@]2(O)[C@H](Oc3c(OC)cccc3OC)OC[C@H]12 (racemic) | inactive | –

— ChEMBL document CHEMBL3044759, “Synthesis and Insecticidal Activity of Lignan Analogs. (1)” (1991)
